Key:
Format in all cases: in vivo
[1] = test system: Amaranthus palmeri having an Arg128Gly, Arg128Met, Gly210 deletion or Gly399Ala mutation in PPO2, waterhemp having a Gly210 deletion mutation in PPO2, ragweeds …; assay: Herbicidal effect, soil application with drift-reducing nozzle 7 days before sowing soybean (Example 1); conditions: soil surface, TTI11004 nozzle, 10, 20, 40, 80, or 160 g/ha, 200 L/ha, greenhouse, soybean sown after 7 days, examined after 14 days
Excerpt: Amaranthus palmeri having an Arg128Gly mutation in PPO2, Amaranthus palmeri having an Arg128Met mutation in PPO2, Amaranthus palmeri having a Gly210 deletion mutation in PPO2, Amaranthus palmeri having a Gly399Ala mutation in PPO2, waterhemp having a Gly210 deletion mutation in PPO2, and ragweeds having Arg128Leu in PPO2 are sown in a plastic pot. On the same day, a compound X is applied to the surface of soil by using a drift-reducing nozzle (TTI11004 manufactured by Teejet Company). The amount of the compound X to be applied is 10, 20, 40, 80, or 160 g/ha and the amount of spray dilution is 200 L/ha. Then, these weeds are cultivated in a greenhouse and Roundup Ready 2 Xtend soybean seeds are sown after 7 days, to examine the effects on the weeds and phytotoxic effects on the soybean after 14 days.

[2] = test system: Amaranthus palmeri having an Arg128Gly, Arg128Met, Gly210 deletion or Gly399Ala mutation in PPO2, waterhemp having a Gly210 deletion mutation in PPO2, ragweeds …; assay: Herbicidal effect, soil application with drift-reducing nozzle on the day of sowing weeds and soybean (Example 2); conditions: soil surface on day of sowing, TTI11004 nozzle, 10, 20, 40, 80, or 160 g/ha, 200 L/ha, greenhouse, examined after 21 days
Excerpt: Amaranthus palmeri having an Arg128Gly mutation in PPO2, Amaranthus palmeri having an Arg128Met mutation in PPO2, Amaranthus palmeri having a Gly210 deletion mutation in PPO2, Amaranthus palmeri having a Gly399Ala mutation in PPO2, waterhemp having a Gly210 deletion mutation in PPO2, ragweeds having Arg128Leu in PPO02, and a Roundup Ready 2 Xtend soybean are sown in a plastic pot. On the same day, a compound X is applied to the surface of soil by using a drift-reducing nozzle (TTI11004 manufactured by Teejet Company). The amount of the compound X to be applied is 10, 20, 40, 80, or 160 g/ha and the amount of spray dilution is 200 L/ha. Then, the weeds and soybean are cultivated in a greenhouse to examine the effects on the weeds and phytotoxic effects on the soybean after 21 days.

[3] = test system: Amaranthus palmeri having an Arg128Gly, Arg128Met, Gly210 deletion or Gly399Ala mutation in PPO2, waterhemp having a Gly210 deletion mutation in PPO2, ragweeds …; assay: Herbicidal effect, foliar treatment with drift-reducing nozzle 21 days after sowing (Example 3); conditions: foliar treatment 21 days after sowing, TTI11004 nozzle, 10, 20, 40, 80, or 160 g/ha, 200 L/ha, greenhouse, examined 14 days after treatment
Excerpt: Amaranthus palmeri having an Arg128Gly mutation in PPO2, Amaranthus palmeri having an Arg128Met mutation in PPO2, Amaranthus palmeri having a Gly210 deletion mutation in PPO2, Amaranthus palmeri having a Gly399Ala mutation in PPO2, waterhemp having a Gly210 deletion mutation in PPO2, ragweeds having Arg128Leu in PPO02, and a Roundup Ready 2 Xtend soybean are sown in a plastic pot. Then, the weeds and soybean are cultivated in a greenhouse and a compound X is applied to perform foliar treatment by using a drift-reducing nozzle (TTI11004 manufactured by Teejet Company) 21 days after sowing. The amount of the compound X to be applied is 10, 20, 40, 80, or 160 g/ha and the amount of spray dilution is 200 L/ha. Then, the weeds and soybean are further cultivated in a greenhouse to examine the effects on the weeds and phytotoxic effects on the soybean 14 days after treatment.

Measured: effects on the weeds

CCOC(=O)COc1ncccc1Oc1cc(-n2c(=O)cc(C(F)(F)F)n(C)c2=O)c(F)cc1Cl [compound X, Ethyl [3-[2-chloro-4-fluoro-5-(l-methyl-6-trifluoromethyl-2,4-dioxo-1,2,3,4-tetrahydropyrimidine-3-yl)phenoxy]-2-pyridyloxy]acetate]
valuable effect: all assays above

From patent publication US11317630B2, “Method of controlling weeds” (Sumitomo Chemical Company, Limited, priority 2018, dated 2022)
